Results as given in patent US20240092799A1, “MNK INHIBITORS” (Hepagene Therapeutics (HK) Limited, priority 2020, published 2024).
pIC50: −log10 of the molar value.

Experiments:
TMD-8 cell p-IF4E = test: p-eIF4E Signaling Cellular Assay (CisBio HTRF) in TMD-8 cells; format: cell-based; conditions: Homo sapiens, TMD8, 40 min, 40 min treatment
Procedure: p-eIF4E Signaling Cellular Assay. Phosphorylated eIF4E is assayed using the CisBio p-Eif4E HTRF assay kit. Reagents and equipment used in the assay are listed below, followed by the protocol.
Cell medium: RPMI 1640+10% FBS+1*PS, TMD-8 were cultured as recommended and assayed in exponential growth phase. • a) Plate 30 μL of cells in 384 white assay plate in appropriate medium and proper cell density (20 k/well) based on Optimization at 37° C. under 5% CO2 atmosphere • b) Dispense 90 nL of compounds diluted in DMSO and treat for 40 min at 37° C. under 5% CO2 atmosphere • c) Remove cell supernatant by flicking the plate • d) Add 16 μL of supplemented lysis buffer (1×) for 30 minutes at RT under shaking • e) Add 4 μL of premixed antibody solutions prepared in the detection buffer. Cover the plate with a plate sealer. Incubate 0/N at RT • f) Read the fluorescence emission at 665 nm and 620 nm on Envision • g) Data analysis • (1) Ratio […] signal is calculated for each well • (2) % Inhibition is calculated as follow:
% inhibition=100−(Signalcmpd-SignalAve_PC)/(SignalAve_VC-SignalAve_PC)×100. • (3) Calculate IC50 and Plot effect-dose curve of cmpds:
Calculate IC50 by fitting % Inhibition values and log of compound concentrations to nonlinear regression (dose response−variable slope) with Graphpad 8.0.
Y=Bottom+(Top−Bottom)/(1+10^((Log IC50−X)*Hill Slope)) • X: log of Inhibitor concentration; Y: % Inhibition.

MNK2 = MNK2 (Homo sapiens (Human), UniProt Q9HBH9); test: MNK Biochemical Enzymatic Assay (ADP-Glo), MNK2 binding assay
Chain of MNK2 (Q9HBH9 whole entry): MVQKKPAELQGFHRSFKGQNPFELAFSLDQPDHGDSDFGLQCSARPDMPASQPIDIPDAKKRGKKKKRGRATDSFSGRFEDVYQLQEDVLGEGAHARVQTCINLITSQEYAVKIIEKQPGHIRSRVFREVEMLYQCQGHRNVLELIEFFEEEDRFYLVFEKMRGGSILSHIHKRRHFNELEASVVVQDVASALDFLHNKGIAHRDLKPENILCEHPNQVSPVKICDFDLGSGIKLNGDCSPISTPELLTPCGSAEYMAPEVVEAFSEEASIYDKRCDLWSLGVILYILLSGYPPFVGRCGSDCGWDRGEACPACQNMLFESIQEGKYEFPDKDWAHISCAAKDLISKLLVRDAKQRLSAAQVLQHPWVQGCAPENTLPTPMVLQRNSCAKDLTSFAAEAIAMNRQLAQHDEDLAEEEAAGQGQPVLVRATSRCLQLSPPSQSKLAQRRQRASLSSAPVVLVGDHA
Summary of the method: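 Human MNK1 or MNK2 was preincubated with a 10-point, 1:3 serial dilution of compound for 15 min at 25 °C. Substrate was then added and the reaction ran 60 min at 25 °C. ADP formed was read by ADP-Glo luminescence, and IC50 came from non-linear regression.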

Row | Structure (SMILES) | pIC50 (TMD-8 cell p-IF4E) | pIC50 (MNK2)
1 | Cc1cc(Nc2cc(Nc3ncc(F)cc3F)ncn2)[n+]([O-])c2c1C(=O)NC21CCCCC1 [Compound XXIX-AM, 2′-((6-((3,5-difluoropyridin-2-yl)amino)pyrimidin-4-yl)amino)-4′-methyl-5′-oxo-5′,6′-dihydrospiro[cyclohexane-1,7′-pyrrolo[3,4-b]pyridine] 1′-oxide] | 7.00 to 8.00 | 8.00 to 10.00
2 | Cn1cnc(Nc2cc(Nc3cc4c(s3)C(=O)NC43CCCCC3)ncn2)c1 [Compound XXXI-B, 2′-((6-((1-methyl-1H-imidazol-4-yl)amino)pyrimidin-4-yl)amino)spiro[cyclohexane-1,4′-thieno[2,3-c]pyrrol]-6′(5′H)-one] | 6.00 to 7.00 | 7.00 to 8.00
3 | O=C1NC2(CCCCC2)c2cc(Nc3ncnc4[nH]ccc34)sc21 [Compound XVII-A, 2′-((7H-pyrrolo[2,3-d]pyrimidin-4-yl)amino)spiro[cyclohexane-1,4′-thieno[2,3-c]pyrrol]-6′(5′H)-one] | 7.00 to 8.00 | 8.00 to 10.00
4 | O=C1NC2(CCCCC2)c2nc(Nc3cc(Nc4ccccn4)ncn3)sc21 [Compound XXVIII-B, 2′-((6-(pyridin-2-ylamino)pyrimidin-4-yl)amino)spiro[cyclohexane-1,4′-pyrrolo[3,4-d]thiazol]-6′(5′H)-one] | 7.00 to 8.00 | 8.00 to 10.00
5 | O=C1NC2(CCCCC2)c2cc(Nc3cc(Nc4cc[nH]n4)ncn3)sc21 [Compound XXIII-U, 2′-((6-((1H-pyrazol-3-yl)amino)pyrimidin-4-yl)amino)spiro[cyclohexane-1,4′-thieno[2,3-c]pyrrol]-6′(5′H)-one] | 7.00 to 8.00 | 8.00 to 10.00
6 | COc1c(N)ncnc1Nc1cc2c(s1)C(=O)NC21CCCCC1 [Compound X-C, 2′-((6-amino-5-methoxypyrimidin-4-yl)amino)spiro[cyclohexane-1,4′-thieno[2,3-c]pyrrol]-6′(5′H)-one] | 7.00 to 8.00 | 8.00 to 10.00
7 | O=C1NC2(CCCCC2)c2cc(Nc3cc(NCC4CCCC4)ncn3)sc21 [Compound XXIV-H, 2′-((6-((cyclopentylmethyl)amino)pyrimidin-4-yl)amino)spiro[cyclohexane-1,4′-thieno[2,3-c]pyrrol]-6′(5′H)-one] | 7.00 to 8.00 | 7.00 to 8.00
8 | CN(C)[C@H]1CCN(C(=O)C2CCc3c(sc4ncnc(Nc5cc6c(s5)C(=O)NC65CCCCC5)c34)C2)C1 (stereo partly drawn) [Compound XXV, 2′-((7-((S)-3-(Dimethylamino)pyrrolidine-1-carbonyl)-5,6,7,8-tetrahydrobenzo[4,5]thieno[2,3-d]pyrimidin-4-yl)amino)spiro[cyclohexane-1,4′-thieno[2,3-c]pyrrol]-6′(5′H)-one] | 6.00 to 7.00 | 7.00 to 8.00
9 | O=C1NC2(CCCCC2)c2cc(Nc3ccnc(N[C@H]4CCOC4)c3)sc21 [Compound XXIV-B, (S)-2′-((2-((tetrahydrofuran-3-yl)amino)pyridin-4-yl)amino)spiro[cyclohexane-1,4′-thieno[2,3-c]pyrrol]-6′(5′H)-one] | 7.00 to 8.00 | 8.00 to 10.00
10 | O=C1NC2(CCCCC2)c2nc(Nc3ccnc(N[C@H]4CCOC4)c3)sc21 [Compound XXVIII-H, (S)-2′-((2-((tetrahydrofuran-3-yl)amino)pyridin-4-yl)amino)spiro[cyclohexane-1,4′-pyrrolo[3,4-d]thiazol]-6′(5′H)-one] | 7.00 to 8.00 | 8.00 to 10.00
11 | C[C@@H]1COCCN1C(=O)C1CCc2c(sc3ncnc(Nc4cc5c(s4)C(=O)NC54CCCCC4)c23)C1 (stereo partly drawn) [Compound XXV-C, 2′-((7-((R)-3-Methylmorpholine-4-carbonyl)-5,6,7,8-tetrahydrobenzo[4,5]thieno[2,3-d]pyrimidin-4-yl)amino)spiro[cyclohexane-1,4′-thieno[2,3-c]pyrrol]-6′(5′H)-one] | 6.00 to 7.00 | 7.00 to 8.00
12 | O=C1NC2(CCCCC2)c2cc(Nc3cc(NC4CCOC4)ncn3)sc21 (stereo not drawn) [Compound XXIII-Y, 2′-((6-((tetrahydrofuran-3-yl)amino)pyrimidin-4-yl)amino)spiro[cyclohexane-1,4′-thieno[2,3-c]pyrrol]-6′(5′H)-one] | 7.00 to 8.00 | 8.00 to 10.00
13 | Cc1cc(Nc2cc(N[C@@H]3COC[C@H]3O)ncn2)[n+]([O-])c2c1C(=O)NC21CCCCC1 (relative stereo) [Compound XXIX-AE, 2′-((6-((trans-4-hydroxytetrahydrofuran-3-yl)amino)pyrimidin-4-yl)amino)-4′-methyl-5′-oxo-5′,6′-dihydrospiro[cyclohexane-1,7′-pyrrolo[3,4-b]pyridine] 1′-oxide] | 7.00 to 8.00 | 8.00 to 10.00

Results, then the compound that gave them:

Row | pIC50 (TMD-8 cell p-IF4E) | pIC50 (MNK2) | Structure (SMILES)
14 | 7.00 to 8.00 | 8.00 to 10.00 | Cn1cnc(Nc2cc(Nc3nc4c(s3)C(=O)NC43CCCCC3)ncn2)n1 [Compound XXVIII-K, 2′-((6-((1-methyl-1H-1,2,4-triazol-3-yl)amino)pyrimidin-4-yl)amino)spiro[cyclohexane-1,4′-pyrrolo[3,4-d]thiazol]-6′(5′H)-one]
15 | 8.00 to 10.00 | 8.00 to 10.00 | Cc1cc(Nc2cc(Nc3cc[nH]n3)ncn2)[n+]([O-])c2c1C(=O)NC21CCCCC1 [Compound XXIX-AS, 2′-((6-((1H-pyrazol-3-yl)amino)pyrimidin-4-yl)amino)-4′-methyl-5′-oxo-5′,6′-dihydrospiro[cyclohexane-1,7′-pyrrolo[3,4-b]pyridine] 1′-oxide]
16 | 8.00 to 10.00 | 8.00 to 10.00 | CO[C@H]1C[C@@H](Nc2cc(Nc3cc(C)c4c([n+]3[O-])C3(CCCCC3)NC4=O)ncn2)C1 [Compound XXIX-AAE, 2′-((6-((cis-3-methoxycyclobutyl)amino)pyrimidin-4-yl)amino)-4′-methyl-5′-oxo-5′,6′-dihydrospiro[cyclohexane-1,7′-pyrrolo[3,4-b]pyridine] 1′-oxide]
17 | 7.00 to 8.00 | 8.00 to 10.00 | Cc1cc(Nc2cc(N)ncn2)[n+]([O-])c2c1C(=O)NC21CCCCC1 [Compound XXIX, 2′-((6-Aminopyrimidin-4-yl)amino)-4′-methyl-5′-oxo-5′,6′-dihydrospiro [cyclohexane-1,7′-pyrrolo[3,4-b]pyridine] 1′-oxide]
18 | 8.00 to 10.00 | 8.00 to 10.00 | Cc1cc(Nc2cc(Nc3ccccc3)ncn2)[n+]([O-])c2c1C(=O)NC21CCCCC1 [Compound XXIX-AH, 4′-methyl-5′-oxo-2′-((6-(phenylamino)pyrimidin-4-yl)amino)-5′,6′-dihydrospiro[cyclohexane-1,7′-pyrrolo[3,4-b]pyridine] 1′-oxide]
19 | 8.00 to 10.00 | 8.00 to 10.00 | Cc1ccc(Nc2cc(Nc3cc(C)c4c([n+]3[O-])C3(CCCCC3)NC4=O)ncn2)nc1 [Compound XXIX-AAA, 4′-methyl-2′-((6-((5-methylpyridin-2-yl)amino)pyrimidin-4-yl)amino)-5′-oxo-5′,6′-dihydrospiro[cyclohexane-1,7′-pyrrolo[3,4-b]pyridine] 1′-oxide]
20 | 8.00 to 10.00 | 8.00 to 10.00 | Cc1cc(Nc2cc(Nc3ccc(N4C[C@@H](C)N[C@@H](C)C4)cn3)ncn2)[n+]([O-])c2c1C(=O)NC21CCCCC1 [Compound XXIX-AAN, 2′-((6-((5-(cis-3,5-dimethylpiperazin-1-yl)pyridin-2-yl)amino)pyrimidin-4-yl)amino)-4′-methyl-5′-oxo-5′,6′-dihydrospiro[cyclohexane-1,7′-pyrrolo[3,4-b]pyridine]1′-oxide]
21 | 8.00 to 10.00 | 8.00 to 10.00 | CC(=O)N(C)c1cccc(Nc2cc(Nc3cc(C)c4c([n+]3[O-])C3(CCCCC3)NC4=O)ncn2)n1 [Compound XXIX-AA, 4′-methyl-2′-((6-((6-(N-methylacetamido)pyridin-2-yl)amino)pyrimidin-4-yl)amino)-5′-oxo-5′,6′-dihydrospiro[cyclohexane-1,7′-pyrrolo[3,4-b]pyridine] 1′-oxide]
22 | 8.00 to 10.00 | 8.00 to 10.00 | COc1c(N)ncnc1Nc1cc(C)c2c([n+]1[O-])C1(CCCCC1)NC2=O [Compound XXIX-Z, 2′-((6-amino-5-methoxypyrimidin-4-yl)amino)-4′-methyl-5′-oxo-5′,6′-dihydrospiro[cyclohexane-1,7′-pyrrolo[3,4-b]pyridine] 1′-oxide]
23 | 8.00 to 10.00 | 8.00 to 10.00 | CN1CCN(c2ccc(Nc3cc(Nc4nc5c(s4)C(=O)NC54CCCCC4)ncn3)nc2)CC1 [Compound XXVIII-R, 2′-((6-((5-(4-methylpiperazin-1-yl)pyridin-2-yl)amino)pyrimidin-4-yl)amino)spiro [cyclohexane-1,4′-pyrrolo[3,4-d]thiazol]-6′(5′H)-one]
24 | 8.00 to 10.00 | 8.00 to 10.00 | Cc1cc(Nc2cc(Nc3ccn(C)n3)ncn2)[n+]([O-])c2c1C(=O)NC21CCCCC1 [Compound XXIX-K, 4′-methyl-2′-((6-((1-methyl-1H-pyrazol-3-yl)amino)pyrimidin-4-yl)amino)-5′-oxo-5′,6′-dihydrospiro[cyclohexane-1,7′-pyrrolo[3,4-b]pyridine] 1′-oxide]
